Our source for the Ki values is patent US9758538B2, “Pyrimidine derivatives” (PFIZER INC., priority 2015, dated 2017).

SMILES strings stand for the structures. pKi: −log10 of the molar value.

Chain of truncated PI3Kα (p110α/iSH2 p85α), PI3KA_Act (P42336 whole entry, the tested form may be a part): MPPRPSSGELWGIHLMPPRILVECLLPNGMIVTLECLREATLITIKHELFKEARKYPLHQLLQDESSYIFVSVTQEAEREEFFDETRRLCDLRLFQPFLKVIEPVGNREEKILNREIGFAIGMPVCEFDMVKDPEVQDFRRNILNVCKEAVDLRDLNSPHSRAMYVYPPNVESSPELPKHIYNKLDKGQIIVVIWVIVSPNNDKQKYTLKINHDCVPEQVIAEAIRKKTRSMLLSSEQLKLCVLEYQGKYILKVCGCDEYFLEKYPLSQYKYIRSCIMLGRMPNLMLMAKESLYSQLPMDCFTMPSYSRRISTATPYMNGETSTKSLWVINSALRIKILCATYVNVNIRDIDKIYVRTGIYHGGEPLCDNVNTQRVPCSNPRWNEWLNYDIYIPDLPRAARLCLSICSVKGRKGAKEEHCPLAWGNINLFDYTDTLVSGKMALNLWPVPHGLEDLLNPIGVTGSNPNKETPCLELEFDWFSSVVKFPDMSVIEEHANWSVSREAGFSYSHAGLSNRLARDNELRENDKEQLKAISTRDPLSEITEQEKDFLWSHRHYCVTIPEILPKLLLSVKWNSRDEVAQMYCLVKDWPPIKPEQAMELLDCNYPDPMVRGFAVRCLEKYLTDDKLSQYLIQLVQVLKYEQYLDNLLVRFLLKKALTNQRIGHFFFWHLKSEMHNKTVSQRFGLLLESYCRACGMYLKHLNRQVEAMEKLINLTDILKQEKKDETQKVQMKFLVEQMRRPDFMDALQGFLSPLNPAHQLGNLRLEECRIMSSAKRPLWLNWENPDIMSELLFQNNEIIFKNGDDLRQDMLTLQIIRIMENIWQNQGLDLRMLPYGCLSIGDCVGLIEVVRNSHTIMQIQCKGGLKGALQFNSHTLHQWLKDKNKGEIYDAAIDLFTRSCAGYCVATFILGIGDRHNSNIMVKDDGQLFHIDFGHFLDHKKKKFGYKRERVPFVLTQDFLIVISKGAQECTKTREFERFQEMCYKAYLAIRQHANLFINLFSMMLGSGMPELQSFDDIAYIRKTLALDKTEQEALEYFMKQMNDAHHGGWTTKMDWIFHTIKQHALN

The target of this experiment is truncated PI3Kα (p110α/iSH2 p85α), PI3KA_Act (Homo sapiens (Human), UniProt P42336). As to the kind of experiment: PI3Kα biochemical kinase assay, fluorescence polarization format (PI3KA_Act). To be noted: 0.5 nM p110α/iSH2 p85, 1 mM ATP, 30 μM PIP2, 15-min preincubation; Morrison equation fit; read-out: PI3KA_Act Ki. In outline:
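Enzyme: His-tagged p110α/p85α niSH2 complex from Sf21 baculovirus expression, IMAC-purified, tag cleaved, then SEC. Reactions ran 30 min at room temperature, stopped with 10 mM EDTA pH 8 (final), and were read by fluorescence polarization.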
By pKi is commonly meant the negative decadic logarithm of the Ki, by convention in mol/L. Take `CC1(OC(=O)N2CC[C@](CO)(Nc3cc(-c4cnc(N)nc4)nc(N4CCOCC4)n3)C2)CC1` [Example 47, 1-methylcyclopropyl (3S)-3-{[2′-amino-2-(morpholin-4-yl)-4,5′-bipyrimidin-6-yl]amino}-3-(hydroxymethyl)pyrrolidine-1-carboxylate]: the pKi was 10.60.
As for `Nc1ncc(-c2nc(N[C@@]3(CO)CCN(C(=O)OCC(F)F)C3)nc(N3CCOCC3)n2)cn1` [Example 99, 2,2-difluoroethyl (3S)-3-{[4-(2-aminopyrimidin-5-yl)-6-(morpholin-4-yl)-1,3,5-triazin-2-yl]amino}-3-(hydroxymethyl)pyrrolidine-1-carboxylate], the figure is 10.57; as for `Nc1ncc(-c2cc(N[C@@]3(CO)CCN(C(=O)C4(F)CNC4)C3)nc(N3CCOCC3)n2)cn1` [Example 97, [(3S)-3-{[2′-amino-2-(morpholin-4-yl)-4,5′-bipyrimidin-6-yl]amino}-3-(hydroxymethyl)pyrrolidin-1-yl](3-fluoroazetidin-3-yl)methanone], greater than 10.74.
To `Nc1ncc(-c2cc(N[C@@]3(CO)CCN(c4ccccn4)C3)nc(N3CCOCC3)n2)cn1` [Example 85, [(3S)-3-{[2′-amino-2-(morpholin-4-yl)-4,5′-bipyrimidin-6-yl]amino}-1-(pyridin-2-yl)pyrrolidin-3-yl]methanol] belongs 10.17; to `CCOC(=O)N1CC[C@](CO)(Nc2cc(-c3cnc(C)c(F)c3)nc(N3CCOCC3)n2)C1` [Example 129, ethyl (3S)-3-{[6-(5-fluoro-6-methylpyridin-3-yl)-2-(morpholin-4-yl)pyrimidin-4-yl]amino}-3-(hydroxymethyl)pyrrolidine-1-carboxylate], 8.08.
To `Cc1ncc(-c2cc(N[C@@]3(CO)CCN(C(=O)OCC(F)F)C3)nc(N3CCOCC3)n2)cn1` [Example 138, 2,2-difluoroethyl (3S)-3-(hydroxymethyl)-3-{[2′-methyl-2-(morpholin-4-yl)-4,5′-bipyrimidin-6-yl]amino}pyrrolidine-1-carboxylate] belongs 9.25; to `Cn1cc(C(=O)N2CC[C@](CO)(Nc3cc(-c4cnc(N)nc4)nc(N4CCOCC4)n3)C2)cn1` [Example 81, [(3S)-3-{[2′-amino-2-(morpholin-4-yl)-4,5′-bipyrimidin-6-yl]amino}-3-(hydroxymethyl)pyrrolidin-1-yl](1-methyl-1H-pyrazol-4-yl)methanone], 9.51.
In the case of `CC(C)C(=O)N1CC[C@](C)(Nc2nc(N3CCOCC3)nc(-c3cnc(N)nc3)c2F)C1` [Example 107, 1-[(3S)-3-{[2′-amino-5-fluoro-2-(morpholin-4-yl)-4,5′-bipyrimidin-6-yl]amino}-3-methylpyrrolidin-1-yl]-2-methylpropan-1-one], the pKi was 9.64.
For the compound `Nc1ncc(-c2nc(N3CCOCC3)nc(N[C@@]3(CO)CCCN(C(=O)C4CC4)C3)c2F)cn1` [Example 156, [(3S)-3-{[2′-amino-5-fluoro-2-(morpholin-4-yl)-4,5′-bipyrimidin-6-yl]amino}-3-(hydroxymethyl)piperidin-1-yl](cyclopropyl)methanone], the pKi was 9.34.
To `Nc1ncc(-c2nc(N[C@@]3(CO)CCN(C(=O)OC4CC4)C3)nc(N3CCOCC3)n2)cn1` [Example 103, cyclopropyl (3S)-3-{[4-(2-aminopyrimidin-5-yl)-6-(morpholin-4-yl)-1,3,5-triazin-2-yl]amino}-3-(hydroxymethyl)pyrrolidine-1-carboxylate] belongs 9.97.
As for `COCC(=O)N1CCC[C@@](CO)(Nc2nc(N3CCOCC3)nc(-c3cnc(N)nc3)c2F)C1` [Example 151, 1-[(3R)-3-{[2′-amino-5-fluoro-2-(morpholin-4-yl)-4,5′-bipyrimidin-6-yl]amino}-3-(hydroxymethyl)piperidin-1-yl]-2-methoxyethanone], the figure is 8.74.
For the compound `CCOC(=O)N1CC[C@@](CC)(Nc2cc(-c3cnc(N)nc3)nc(N3CCOCC3)n2)C1` [Example 95, ethyl (3R)-3-{[2′-amino-2-(morpholin-4-yl)-4,5′-bipyrimidin-6-yl]amino}-3-ethylpyrrolidine-1-carboxylate], the pKi was 9.39.
On to `CCOC(=O)N1CC[C@](COC(C)=O)(Nc2cc(-c3cnc(N)nc3)nc(N3CCOCC3)n2)C1` [Example 113, ethyl (3S)-3-[(acetyloxy)methyl]-3-{[2′-amino-2-(morpholin-4-yl)-4,5′-bipyrimidin-6-yl]amino}pyrrolidine-1-carboxylate], for which the pKi was 8.49.
On to `Nc1ncc(-c2cc(N[C@]3(CO)CCNC3)nc(N3CCOCC3)n2)cn1` [Example 30, [(3R)-3-{[2′-amino-2-(morpholin-4-yl)-4,5′-bipyrimidin-6-yl]amino}pyrrolidin-3-yl]methanol], for which the pKi is 8.62.
In the case of `Nc1ncc(-c2nc(N3CCOCC3)nc(N[C@]3(CO)CCCN(C(=O)C4CC4)C3)c2F)cn1` [Example 157, [(3R)-3-{[2′-amino-5-fluoro-2-(morpholin-4-yl)-4,5′-bipyrimidin-6-yl]amino}-3-(hydroxymethyl)piperidin-1-yl](cyclopropyl)methanone], the pKi was 8.73.
As for `Nc1ncc(-c2nc(N3CCOCC3)nc(N[C@@]3(COP(=O)(O)O)CCN(C(=O)OCC(F)F)C3)c2F)cn1` [Example 3, 2,2-difluoroethyl (3S)-3-{[2′-amino-5-fluoro-2-(morpholin-4-yl)-4,5′-bipyrimidin-6-yl]amino}-3-[(phosphonooxy)methyl]pyrrolidine-1-carboxylate], the figure is 8.58.
Regarding `CC(C)(C)OC(=O)N1CC[C@](C)(Nc2nc(N3CCOCC3)nc(-c3cnc(N)nc3)c2F)C1` [Example 108, tert-butyl (3S)-3-{[2′-amino-5-fluoro-2-(morpholin-4-yl)-4,5′-bipyrimidin-6-yl]amino}-3-methylpyrrolidine-1-carboxylate], the pKi is 10.44.
To `CN(c1cc(-c2cnc(N)nc2)nc(N2CCOCC2)n1)C1(CO)CCN(C(=O)OC(C)(C)C)C1` (single isomer, unassigned) [Example 26, tert-butyl 3-{[2′-amino-2-(morpholin-4-yl)-4,5′-bipyrimidin-6-yl](methyl)amino}-3-(hydroxymethyl)pyrrolidine-1-carboxylate] belongs greater than 10.74; to `CC(C)CC(=O)N1CC[C@](CO)(Nc2cc(-c3cnc(N)nc3)nc(N3CCOCC3)n2)C1` [Example 57, 1-[(3S)-3-{[2′-amino-2-(morpholin-4-yl)-4,5′-bipyrimidin-6-yl]amino}-3-(hydroxymethyl)pyrrolidin-1-yl]-3-methylbutan-1-one], 9.94; to `COC(=O)N1CC[C@](CO)(Nc2cc(-c3cnc(N)nc3C(F)(F)F)nc(N3CCOCC3)n2)C1` [Example 58, methyl (3S)-3-{[2′-amino-2-(morpholin-4-yl)-4′-(trifluoromethyl)-4,5′-bipyrimidin-6-yl]amino}-3-(hydroxymethyl)pyrrolidine-1-carboxylate], 9.70.
To `Nc1ncc(-c2cc(N[C@@]3(CO)CCN(C(=O)N4CCC4)C3)nc(N3CCOCC3)n2)cn1` [Example 89, [(3S)-3-{[2′-amino-2-(morpholin-4-yl)-4,5′-bipyrimidin-6-yl]amino}-3-(hydroxymethyl)pyrrolidin-1-yl](azetidin-1-yl)methanone] belongs greater than 10.74.
As for `C[C@H]1COCCN1c1nc(N[C@@]2(CO)CCN(C(=O)OC(C)(C)C)C2)cc(-c2cnc(N)nc2)n1` [Example 36, tert-butyl (3S)-3-({2′-amino-2-[(3S)-3-methylmorpholin-4-yl]-4,5′-bipyrimidin-6-yl}amino)-3-(hydroxymethyl)pyrrolidine-1-carboxylate], the figure is greater than 10.74.
In the case of `COC(=O)N1CC[C@](CO)(Nc2nc(N3CCOC[C@@H]3C)nc(-c3cnc(N)nc3)c2F)C1` [Example 114, methyl (3S)-3-({2′-amino-5-fluoro-2-[(3S)-3-methylmorpholin-4-yl]-4,5′-bipyrimidin-6-yl}amino)-3-(hydroxymethyl)pyrrolidine-1-carboxylate], the pKi was greater than 10.74.
To `CC(C)(C)OC(=O)N1CCC(CO)(Oc2cc(-c3cnc(N)nc3)nc(N3CCOCC3)n2)C1` (racemic) [Example 7, tert-butyl 3-{[2′-amino-2-(morpholin-4-yl)-4,5′-bipyrimidin-6-yl]oxy}-3-(hydroxymethyl)pyrrolidine-1-carboxylate] belongs 10.24; to `CC[C@@]1(Nc2cc(-c3cnc(N)nc3)nc(N3CCOCC3)n2)CCN(C(=O)C2(F)CC2)C1` [Example 94, [(3R)-3-{[2′-amino-2-(morpholin-4-yl)-4,5′-bipyrimidin-6-yl]amino}-3-ethylpyrrolidin-1-yl](1-fluorocyclopropyl)methanone], 9.20.
As for `CC(C)OC(=O)N1CC[C@](CO)(Nc2nc(-c3cnc(N)nc3)nc(N3CCOCC3)n2)C1` [Example 83, propan-2-yl (3S)-3-{[4-(2-aminopyrimidin-5-yl)-6-(morpholin-4-yl)-1,3,5-triazin-2-yl]amino}-3-(hydroxymethyl)pyrrolidine-1-carboxylate], the figure is 9.67.
As for `Nc1ncc(-c2cc(N[C@@]3(CO)CCN(CC4CC4)C3)nc(N3CCOCC3)n2)cn1` [Example 71, [(3S)-3-{[2′-amino-2-(morpholin-4-yl)-4,5′-bipyrimidin-6-yl]amino}-1-(cyclopropylmethyl)pyrrolidin-3-yl]methanol], the figure is 8.02.
`Nc1ncc(-c2cc(NC3(CO)CNC3)nc(N3CCOCC3)n2)cn1` [Example 43, (3-{[2′-amino-2-(morpholin-4-yl)-4,5′-bipyrimidin-6-yl]amino}azetidin-3-yl)methanol]: the pKi was 8.71.
As for `Nc1ncc(-c2cc(N[C@@]3(CO)CCN(C(=O)c4ncccn4)C3)nc(N3CCOCC3)n2)cn1` [Example 87, [(3S)-3-{[2′-amino-2-(morpholin-4-yl)-4,5′-bipyrimidin-6-yl]amino}-3-(hydroxymethyl)pyrrolidin-1-yl](pyrimidin-2-yl)methanone], the figure is 10.07.
